The source of these data is paper PMC9120017, “Inhibition mechanism of the chloride channel TMEM16A by the pore blocker 1PBC” (Nature Communications, 2022).

This assay addresses T1, mouse TMEM16F (Mus musculus, UniProt Q6P9J9).
T1 construct: expressed in transfected cells; host or cells: HEK293T
T1 sequence (Q6P9J9 1-911): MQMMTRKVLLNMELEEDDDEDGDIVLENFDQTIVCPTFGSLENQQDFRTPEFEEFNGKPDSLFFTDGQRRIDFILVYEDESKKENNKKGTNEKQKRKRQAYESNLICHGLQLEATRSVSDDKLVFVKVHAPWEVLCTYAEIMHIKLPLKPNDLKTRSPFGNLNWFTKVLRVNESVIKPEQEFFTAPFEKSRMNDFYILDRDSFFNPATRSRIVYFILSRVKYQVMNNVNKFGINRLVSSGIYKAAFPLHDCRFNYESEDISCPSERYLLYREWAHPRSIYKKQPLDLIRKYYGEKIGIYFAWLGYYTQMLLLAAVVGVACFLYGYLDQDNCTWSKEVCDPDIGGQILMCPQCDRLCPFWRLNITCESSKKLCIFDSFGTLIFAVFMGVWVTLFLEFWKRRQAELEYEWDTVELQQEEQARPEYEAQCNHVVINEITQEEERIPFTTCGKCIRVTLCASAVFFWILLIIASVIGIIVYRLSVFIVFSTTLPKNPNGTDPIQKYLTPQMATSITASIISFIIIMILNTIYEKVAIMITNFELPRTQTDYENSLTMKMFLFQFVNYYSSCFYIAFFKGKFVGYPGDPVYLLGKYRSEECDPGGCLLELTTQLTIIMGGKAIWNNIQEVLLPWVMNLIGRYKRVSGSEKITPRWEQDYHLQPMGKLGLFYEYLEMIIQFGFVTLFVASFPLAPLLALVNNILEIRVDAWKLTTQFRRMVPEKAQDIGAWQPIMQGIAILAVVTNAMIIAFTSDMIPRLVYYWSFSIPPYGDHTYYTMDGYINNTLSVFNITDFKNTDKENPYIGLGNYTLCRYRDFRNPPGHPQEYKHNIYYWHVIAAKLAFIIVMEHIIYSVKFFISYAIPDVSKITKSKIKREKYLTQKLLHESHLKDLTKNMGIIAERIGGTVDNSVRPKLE
The assay is described as follows: Inside-out patch recording of 1PBC block, TMEM16F. Type of assay: cell-based. To be noted: 300 µM Ca2+. The procedure: HEK293T cells (ATCC CRL-1573) were maintained in Dulbecco’s modified Eagle’s medium (DMEM; Sigma-Aldrich) supplemented with 10 U ml^−1 penicillin, 0.1 mg ml^−1 streptomycin (Sigma-Aldrich), 2 mM L-glutamine (Sigma-Aldrich), and 10% FBS (Sigma-Aldrich) in a humidified atmosphere containing 5% CO2 at 37 °C. HEK293S GnTI^− cells (ATCC CRL-3022) were maintained in HyClone HyCell TransFx-H medium (GE Healthcare) supplemented with 10 U ml^−1 penicillin, 0.1 mg ml^−1 streptomycin, 4 mM L-glutamine, 0.15% poloxamer 188 (Sigma-Aldrich), and 1% FBS in an atmosphere containing 5% CO2 at 185 rpm at 37 °C. The ac splice variant of mouse TMEM16A (UniProt ID: Q8BHY3), mouse TMEM16B (UniProt ID: Q8CFW1), or mouse TMEM16F (UniProt ID: Q6P9J9) bearing a 3C cleavage site, a Venus YFP, a Myc tag, and a Streptavidin-binding peptide (SBP) downstream of the open reading frame in a modified pcDNA3.1 vector (Invitrogen) were used as described previously[21],[31]. Mutations were introduced using a modified QuikChange method[58] and were verified by sequencing.
HEK293T cells were transfected with 3–4 μg DNA per 6 cm Petri dish using the calcium phosphate co-precipitation method and were used within 24–96 h after transfection. Recordings were performed on inside-out patches excised from HEK293T cells expressing the construct of interest. Patch pipettes were pulled from borosilicate glass capillaries (O.D. 1.5 mm, I.D. 0.86 mm, Sutter Instrument) and were fire-polished with a microforge (Narishige) before use. Pipette resistance was typically 3–8 MΩ when filled with the recording solutions detailed below. Seal resistance was typically 4 GΩ or higher. Voltage-clamp recordings were made using Axopatch 200B, Digidata 1550, and Clampex 10.7 (Molecular Devices). Analog signals were filtered with the in-built 4-pole Bessel filter at 10 kHz and were digitized at 20 kHz. Solution exchange was achieved using a gravity-fed system through a theta glass pipette mounted on an ultra-fast piezo-driven stepper (Siskiyou). […] All recordings were performed at 20 °C.
A symmetrical ionic condition was used throughout. Stock solution with Ca^2+-EGTA contained 150 mM NaCl, 5.99 mM Ca(OH)2, 5 mM EGTA, and 10 mM HEPES at pH 7.40. Stock solution with EGTA contained 150 mM NaCl, 5 mM EGTA, and 10 mM HEPES at pH 7.40. Free Ca^2+ concentrations were adjusted by mixing the stock solutions at the required ratios calculated using the WEBMAXC program (http://web.stanford.edu/~cpatton/webmaxcS.htm). Patch pipettes were filled with the stock solution with Ca^2+-EGTA, which has a free Ca^2+ concentration of 1 mM. 1PBC (ChemBridge) stock was reconstituted in anhydrous DMSO (Sigma-Aldrich) at 100 mM and stored at −20 °C. Working solutions with 1PBC were prepared by serial dilution. Unless otherwise stated, experiments were performed at a saturating Ca^2+ concentration as shown in Supplementary Table 1 and the primary data were corrected for current rundown as described previously[21],[25].
Concentration-response relations, obtained from the ratio of the I-V plots before and after the application of the blocker, were fitted to the Hill equation,1 I/Imax=1/1+IC50/[blocker]^h where I/Imax is the normalized current responses, IC50 defines the concentration at which inhibition is at its half-maximum, and h is the Hill coefficient.

As for `N#Cc1c(C(F)(F)F)cc(O)n2c1nc1ccccc12` [1PBC], for the setting “3 µM 1PBC, +80 mV, read-out: I/Imax”, the remaining activity at 3 µM is 100%. Under “10 µM 1PBC, +80 mV, read-out: I/Imax”, the remaining activity at 10 µM was 98.7%. Where the note is “30 µM 1PBC, +80 mV, read-out: I/Imax”, the remaining activity at 30 µM came out at 101%. For the same compound, where the note is “100 µM 1PBC, +80 mV, read-out: I/Imax”, the remaining activity at 100 µM came to 100%. For the same compound, the “Inhibition of the current mediated by the scramblase TMEM16F” value (within the same concentration range) is “ineffective”.
